Reference: ChEMBL document CHEMBL5247620, “Lupane derivatives containing various aryl substituents in the position 3 have selective cytostatic effect in leukemic cancer cells including resistant phenotypes” (Eur J Med Chem, 2022)
pIC50: −log10 of the molar value. Calls of active or inactive are those of the source. The rule behind the calls is not given here.

Tests used:
CCRF-CEM [1] = experiment: Induction of apoptosis in human CCRF-CEM cells assessed as effect on total Rb protein level at 1 times IC50 concentration incubated for 24 hrs by western blot assay; assay type: functional, cell-based
CCRF-CEM [2] = experiment: Induction of apoptosis in human CCRF-CEM cells assessed as decrease in cell number at 1 times IC50 concentration incubated for 24 to 74 hrs by annexin V FITC/propidium iodide staining based flow cytometry; assay type: functional; details: time 24-74 hrs
[3] = Apparent permeability across apical to basolateral side in human Caco-2 cells assessed as drug recovery incubated for 2 hr by high-throughput spectrometric analysis; assay type: ADME, cell-based; details: read-out: Drug recovery
[4] = Apparent permeability across apical to basolateral side in human Caco-2 cells incubated for 2 hr by high-throughput spectrometric analysis; assay type: ADME, cell-based
CCRF-CEM [5] = experiment: Induction of apoptosis in human CCRF-CEM cells assessed as viable cells at 1 times IC50 concentration incubated for 24 hrs by annexin V FITC/propidium iodide staining based flow cytometry (reference value: 96 %); assay type: functional
CCRF-CEM [6] = experiment: Induction of apoptosis in human CCRF-CEM cells assessed as late apoptotic cells at 1 times IC50 concentration incubated for 24 hrs by annexin V FITC/propidium iodide staining based flow cytometry (reference value: 1.4 %); assay type: functional
CCRF-CEM [7] = experiment: Induction of cell cycle arrest in human CCRF-CEM cells assessed as accumulation of cells at G1 phase at 1 times IC50 concentration incubated for 24 to 72 hrs by propidium iodide staining based flow cytometry; assay type: functional; details: time 24-72 hrs
CCRF-CEM [8] = experiment: Induction of cell cycle arrest in human CCRF-CEM cells assessed as decrease of cell population at S phase at 1 times IC50 concentration incubated for 24 to 72 hrs by propidium iodide staining based flow cytometry; assay type: functional; details: time 24-72 hrs
CCRF-CEM [9] = experiment: Induction of apoptosis in human CCRF-CEM cells assessed as decrease in cell number at 5 times IC50 concentration incubated for 24 to 74 hrs by annexin V FITC/propidium iodide staining based flow cytometry; assay type: functional; details: time 24-74 hrs
CEM-DNR = experiment: Cytotoxicity against human CEM-DNR cells assessed as inhibition of cell growth incubated for 72 hrs by MTS assay; assay type: functional, cell-based
[10] = Apparent permeability across apical to basolateral side in dog MDCK-MDR1 cells incubated for 1 hr by high-throughput spectrometric analysis; assay type: ADME, cell-based, Canis lupus familiaris
[11] = Chemical stability of the compound in PBS buffer assessed as compound remaining at pH 7.4 at 2 uM measured after 120 mins by RF-MS analysis; assay type: physicochemical; details: read-out: Stability
[12] = Plasma stability in human assessed as compound remaining at 2 uM measured after 60 mins by RF-MS analysis; assay type: ADME, cell-free; details: read-out: Stability
CCRF-CEM [13] = experiment: Induction of apoptosis in human CCRF-CEM cells assessed as early apoptotic cells at 5 times IC50 concentration incubated for 24 hrs by annexin V FITC/propidium iodide staining based flow cytometry (reference value: 2.6 %); assay type: functional
CCRF-CEM [14] = experiment: Induction of apoptosis in human CCRF-CEM cells assessed as early apoptotic cells at 1 times IC50 concentration incubated for 24 hrs by annexin V FITC/propidium iodide staining based flow cytometry (reference value: 2.6 %); assay type: functional
[15] = Efflux ratio of apparent permeability from basolateral to apical side over apical to basolateral side in dog MDCK-MDR1 cells incubated for 1 hr by high-throughput spectrometric analysis; assay type: ADME, cell-based, Canis lupus familiaris
[16] = Cytotoxicity against human p53HCT116 cells assessed as inhibition of cell growth incubated for 72 hrs by MTS assay; assay type: functional, cell-based; details: p53HCT116, 72 h
[17] = Plasma stability in human assessed as compound remaining at 2 uM measured after 15 mins by RF-MS analysis; assay type: ADME, cell-free; details: read-out: Stability
CCRF-CEM [18] = experiment: Induction of apoptosis in human CCRF-CEM cells assessed as effect on total Rb protein level at 5 times IC50 concentration incubated for 24 hrs by western blot assay; assay type: functional, cell-based
U2OS = experiment: Cytotoxicity against human U2OS cells assessed as inhibition of cell growth incubated for 72 hrs by MTS assay; assay type: functional, cell-based
K562 = experiment: Cytotoxicity against human K562 cells assessed as inhibition of cell growth incubated for 72 hrs by MTS assay; assay type: functional, cell-based; details: K562, 72 h
[19] = Microsomal stability in human liver microsome as compound remaining at 2 uM measured after 30 mins in presence of NADPH by RF-MS analysis; assay type: ADME; details: liver microsomes, read-out: Stability
[20] = Efflux ratio of apparent permeability from basolateral to apical side over apical to basolateral side in human Caco-2 cells incubated for 2 hr by high-throughput spectrometric analysis; assay type: ADME, cell-based
[21] = Plasma protein binding in human assessed as fraction bound at 10 uM incubated for 4 hrs by rapid equilibrium dialysis based RF-MS analysis; assay type: ADME, cell-free; details: read-out: PPB (converted)
[22] = Plasma stability in human assessed as compound remaining at 2 uM measured after 120 mins by RF-MS analysis; assay type: ADME, cell-free; details: read-out: Stability
[23] = Cytotoxicity against human BJ cells assessed as inhibition of cell growth incubated for 72 hrs by MTS assay; assay type: toxicity, cell-based
CCRF-CEM [24] = experiment: Induction of apoptosis in human CCRF-CEM cells assessed as viable cells at 5 times IC50 concentration incubated for 24 hrs by annexin V FITC/propidium iodide staining based flow cytometry (reference value: 96 %); assay type: functional
[25] = Chemical stability of the compound in PBS buffer assessed as compound remaining at pH 7.4 at 2 uM measured after 30 mins by RF-MS analysis; assay type: physicochemical; details: read-out: Stability
CCRF-CEM [26] = experiment: Induction of cell cycle arrest in human CCRF-CEM cells assessed as accumulation of cells at G1 phase at 5 times IC50 concentration incubated for 24 to 72 hrs by propidium iodide staining based flow cytometry; assay type: functional; details: time 24-72 hrs
CCRF-CEM [27] = experiment: Induction of apoptosis in human CCRF-CEM cells assessed as late apoptotic cells at 5 times IC50 concentration incubated for 24 hrs by annexin V FITC/propidium iodide staining based flow cytometry (reference value: 1.4 %); assay type: functional
[28] = Microsomal stability in human liver microsome as compound remaining at 2 uM measured after 60 mins in presence of NADPH by RF-MS analysis; assay type: ADME; details: liver microsomes, read-out: Stability
[29] = Chemical stability of the compound in PBS buffer assessed as compound remaining at pH 7.4 at 2 uM measured after 15 mins by RF-MS analysis; assay type: physicochemical; details: read-out: Stability
[30] = Cytotoxicity against human MRC5 cells assessed as inhibition of cell growth incubated for 72 hrs by MTS assay; assay type: toxicity, cell-based
HCT-116 = experiment: Cytotoxicity against human HCT-116 cells assessed as inhibition of cell growth incubated for 72 hrs by MTS assay; assay type: functional, cell-based; details: HCT-116, 72 h
[31] = Microsomal stability in human liver microsome as compound remaining at 2 uM measured after 15 mins in presence of NADPH by RF-MS analysis; assay type: ADME; details: liver microsomes, read-out: Stability
[32] = Chemical stability of the compound in PBS buffer assessed as compound remaining at pH 7.4 at 2 uM measured after 60 mins by RF-MS analysis; assay type: physicochemical; details: read-out: Stability
CCRF-CEM [33] = experiment: Cytotoxicity against human CCRF-CEM cells assessed as inhibition of cell growth incubated for 72 hrs by MTS assay; assay type: functional, cell-based
[34] = Cytotoxicity against human K562-Tax cells assessed as inhibition of cell growth incubated for 72 hrs by MTS assay; assay type: functional, cell-based
CCRF-CEM [35] = experiment: Induction of cell cycle arrest in human CCRF-CEM cells assessed as decrease of cell population at S phase at 5 times IC50 concentration incubated for 24 to 72 hrs by propidium iodide staining based flow cytometry; assay type: functional; details: time 24-72 hrs
A549 = experiment: Cytotoxicity against human A549 cells assessed as inhibition of cell growth incubated for 72 hrs by MTS assay; assay type: functional, cell-based; details: A549, 72 h
[36] = Apparent permeability across apical to basolateral side in dog MDCK-MDR1 cells assessed as drug recovery incubated for 1 hr by high-throughput spectrometric analysis; assay type: ADME, cell-based, Canis lupus familiaris; details: read-out: Drug recovery
[37] = Plasma stability in human assessed as compound remaining at 2 uM measured after 30 mins by RF-MS analysis; assay type: ADME, cell-free; details: read-out: Stability

C=C(C)[C@@H]1CC[C@]2(C(=O)O)CC[C@]3(C)[C@H](CC[C@@H]4[C@@]5(C)CC=C(c6ccc(O)cc6)C(C)(C)[C@@H]5CC[C@]43C)[C@@H]12
Activity (CCRF-CEM [1]): inactive
Activity (CCRF-CEM [2]): Active
recovery at 2 h [3]: 65.2%
Papp A→B at 2 h [4]: 1.69 ×10⁻⁶ cm/s
Activity (CCRF-CEM [5]): 95%
Activity (CCRF-CEM [6]): 1.6%
Activity (CCRF-CEM [7]): Active
Activity (CCRF-CEM [8]): Active
Activity (CCRF-CEM [9]): Active
pIC50 (CEM-DNR): 5.48
Papp A→B at 1 h [10]: 4.27 ×10⁻⁶ cm/s
remaining at 2 h, 2 µM [11]: 89.6%
remaining at 1 h, 2 µM [12]: 86.8%
Activity (CCRF-CEM [13]): 3.9%
Activity (CCRF-CEM [14]): 3.4%
efflux ratio at 1 h [15]: 2.05
pIC50 [16]: 5.19
remaining at 0.25 h, 2 µM [17]: 93.9%
Activity (CCRF-CEM [18]): inactive
pIC50 (U2OS): 4.96
pIC50 (K562): 5.21
remaining at 0.5 h, 2 µM [19]: 93.2%
efflux ratio at 2 h [20]: 1.47
fraction unbound at 4 h, 10 µM [21]: 0.242
remaining at 2 h, 2 µM [22]: 74.4%
IC50 at 72 h [23]: 31 µM
Activity (CCRF-CEM [24]): 94.2%
remaining at 0.5 h, 2 µM [25]: 98.7%
Activity (CCRF-CEM [26]): Active
Activity (CCRF-CEM [27]): 1.9%
remaining at 1 h, 2 µM [28]: 92.9%
remaining at 0.25 h, 2 µM [29]: 98.9%
IC50 at 72 h [30]: 27 µM
pIC50 (HCT-116): 5.13
remaining at 0.25 h, 2 µM [31]: 96.7%
remaining at 1 h, 2 µM [32]: 94%
pIC50 (CCRF-CEM [33]): 6.16
pIC50 [34]: 5.48
Activity (CCRF-CEM [35]): Active
pIC50 (A549): 5.21
recovery at 1 h [36]: 55.9%
remaining at 0.5 h, 2 µM [37]: 88.1%
